Several values for one entry are separate records, joined by “and”; a condition that tells them apart may be missing. Equal entries are not always repeated.
Legend:
[1] = biological target: T1, rat μ opioid receptor (Rattus norvegicus, UniProt P33535); test: biochemical; format: binding
T1 construct: expressed in transfected cells; host or cells: CHO cells, stably transfected; membranes

[2] = biological target: T2, mouse δ opioid receptor (Mus musculus, UniProt P32300); test: biochemical; format: binding
T2 construct: expressed in transfected cells; host or cells: CHO cells, stably transfected; membranes

[3] = biological target: T3, human κ-OR (Homo sapiens, UniProt P41145); test: Competitive inhibition of [3H]diprenorphine binding to CHO-κ-OR membranes; conditions: for Ki: displacement of [3H]diprenorphine from CHO cell membranes expressing human κ-OR, n = 3, in duplicate, read-out: Ki ± SEM
T3 construct: expressed in transfected cells; host or cells: CHO cells, stably transfected; membranes

[4] = test system: T4, κ-OR (CHO-hκ-OR); test: Antagonism of dynorphin A (10 nM) at κ-OR in the [35S]GTPγS assay; format: biochemical, human; conditions: for [35S]GTPγS binding (% increase over basal), single experiments / [35S]GTPγS binding (% increase over basal), Mean: antagonist 3 μM; for [35S]GTPγS binding (% increase over basal), single experiments: without antagonist 130 and 296; for [35S]GTPγS binding (% increase over basal), Mean: without antagonist mean 213
T4 construct: expressed in transfected cells; host or cells: CHO cells, stably transfected; membranes

[5] = biological target: T3, human κ-OR; test: biochemical
[6] = test system: κ-OR; parameters: method as in doi:10.1007/978-1-59745-197-0_6; conditions: cited from earlier work

Row | SMILES | Ki [1] [nM] | Ki [2] [nM] | Ki [3] [nM] | affinity for µ-OR (in words) [1] | affinity for δ-OR (in words) [2] | [35S]GTPγS binding (% increase over basal), single experiments [4] | [35S]GTPγS binding (% increase over basal), Mean [4] [% increase over basal] | inhibition at 3 µM ([3]; 3 µM, κ-OR, read-out: inhibition (displacement) of [3H]diprenorphine binding, initial screening) [%] | EC50 [5] [nM] | Emax [5] [%] | Ke [6] [pM] | antagonism of dynorphin A (in words) ([4]; primary screen at 3 μM)
1 | COC(=O)C1CC(OCOCCO)C(=O)C2C1(C)CCC1C(=O)OC(c3ccoc3)CC12C (stereo not drawn) [compound 6] | > 1000 | > 1000 | 12.7 ± 1.3 | – | – | – | – | – | – | – | – | –
2 | COC(=O)C1CC(OC(C)=O)C(=O)C2C1(C)CCC1C(=O)OC(c3cc(CO)oc3CO)CC12C (stereo not drawn) [compound 5] | – | – | > 1000 | no affinity | no affinity | 175 % increase over basal and 278 % increase over basal | 226 | – | – | – | – | –
3 | COC(=O)C1CC(OC(C)=O)C(=O)C2C1(C)CCC1C(=O)OC(c3ccoc3CO)CC12C (stereo not drawn) [compound 4] | – | – | 110 ± 10 | – | – | 249 % increase over basal and 415 % increase over basal | 332 | ≥ 50 | 345 ± 47 | 103 | – | –
4 | COC(=O)C1CC(OC(C)=O)C(=O)C2C1(C)CCC1C(=O)OC(c3coc(CN(C)C)c3)CC12C (stereo not drawn) [compound 3] | – | – | > 1000 | no affinity | no affinity | 146 % increase over basal and 270 % increase over basal | 208 | – | – | – | – | –
5 | COC(=O)C1CC(OC(C)=O)C(=O)C2C1(C)CCC1C(=O)OC(c3ccoc3CN(C)C)CC12C (stereo not drawn) [compound 2] | – | – | > 1000 | no affinity | no affinity | 182 % increase over basal and 319 % increase over basal | 251 | – | – | – | – | –
6 | CC(C)[C@@H](CN1CC[C@@](C)(c2cccc(O)c2)[C@@H](C)C1)NC(=O)[C@H]1Cc2ccc(O)cc2CN1 [JDTic, reference compound] | – | – | – | – | – | – | 0 | – | – | – | < 40 | abolished response to dynorphin A

Reference: paper PMC3896271 (Beilstein Journal of Organic Chemistry, 2013)
